Test system: p62 protein
Test: p62 protein blotting with Baf-A1 (autophagic flux) in human neurons
Format: cell-based
Description: Sample preparation: for adherent cultured cells, exemplified by cells cultured in a six-well cell plate, the cell medium was aspirated and the cells were washed once with dPBS. About 100 μL of RIPA lysate (50 mM Tris-HCl, pH 7.5, 150 mM NaCl, 0.25% Na-deoxycholate, 0.1% NP-40, 0.1% Triton X-100) containing protease inhibitors and phosphatase inhibitors was added to each well. The cell lysate was scraped off completely with a cell scraper and collected into 1.5 mL EP tubes. Lysis was continued for 30 minutes on ice. For animal tissue, the weight of the animal tissue was weighed, and RIPA lysate containing protease inhibitors and phosphatase inhibitors was added with five times the volume of the animal tissue. The tissue was grinded on ice with a tissue grinder until there is no obvious tissue mass, collected into 1.5 mL EP tubes, and placed on ice for further lysis for 30 min. […]

SMILES: C/C=C1\C(=O)C[C@H]2[C@@H]3CCC4=CC(=O)CC[C@]4(C)[C@H]3CC[C@]12C [Compound G, (Z)-guggulsterone]
- increases of p62 protein after adding Baf-A1 (autophagic flux) (CLN3^Δex7/8 human neurons): higher increases of p62 protein
- intracellular protein level of p62 (under the condition of adding Baf-A1): still significantly increase
